Data published in PMC8963254, “Effects of Lysine N-ζ-Methylation in Ultrashort Tetrabasic Lipopeptides (UTBLPs) on the Potentiation of Rifampicin, Novobiocin, and Niclosamide in Gram-Negative Bacteria” (Antibiotics, 2022).
≈ marks a conversion by molar mass, not a printed value. Like-named read-outs stand apart in the source and are kept apart here. Non-standard residues stand in square brackets, D forms with d. Residues, ends and D or L forms follow the SMILES beside them. *: point of attachment. Lys(Me2) = CN(C)CCCC[C@H](N)C(=O)O; Octanoyl = CCCCCCCC(=O)*

Experiments:
A. baumannii ATCC 17978 [1] = format: cell-based, Acinetobacter baumannii; conditions: ATCC 17978, 18 h
In short: (§1)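 Turbidity at 590 nm defined growth, from which the MIC was taken. Cultures at a final density of 5 × 10^5 CFU/mL were exposed to a range of compound levels at 37 °C for 18 h in a CLSI-based microdilution format.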

E. coli 94393 = test: microbe, parasite or virus in culture; format: cell-based, Escherichia coli; conditions: 94393, 18 h
In short: as §1

E. coli 94474 [2] = test: microbe, parasite or virus in culture; format: cell-based, Escherichia coli; conditions: 94474, 18 h
In short: as §1

MSSE 81388 = format: cell-based, Staphylococcus epidermidis
In short: (§2)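 Values derive from a two-agent checkerboard with an 18 h, 37 °C incubation. FICI cut-offs: ≤0.5 synergy, 0.5–4 additive, >4 antagonism.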

MRSE 61589 = format: cell-based, Staphylococcus epidermidis
In short: as §2

E. cloacae 118564 = test: microbe, parasite or virus in culture; format: cell-based, Enterobacter cloacae; conditions: 118564, 18 h
In short: as §1

[3] = system: P. aeruginosa PA259-96196; format: cell-based, Pseudomonas aeruginosa; conditions: for MICUTBLP: UTBLP alone
In short: as §2

P. aeruginosa PAO1 [4] = format: cell-based, Pseudomonas aeruginosa; conditions: for MICUTBLP: UTBLP alone
In short: as §2

[5] = system: P. aeruginosa PA262-101856; format: cell-based, Pseudomonas aeruginosa; conditions: for MICUTBLP: UTBLP alone
In short: as §2

P. aeruginosa PAO1 [6] = format: cell-based, Pseudomonas aeruginosa; conditions: PAO1, 18 h
In short: as §1

K. pneumoniae 113250 = test: microbe, parasite or virus in culture; format: cell-based, Klebsiella pneumoniae; conditions: 113250, 18 h
In short: as §1

A. baumannii ATCC 17978 [7] = format: cell-based, Acinetobacter baumannii; conditions: for MICUTBLP: UTBLP alone
In short: as §2

A. baumannii 92247 = format: cell-based, Acinetobacter baumannii; conditions: for MICUTBLP: UTBLP alone
In short: as §2

A. baumannii AB027 [8] = format: cell-based, Acinetobacter baumannii; conditions: for MICUTBLP: UTBLP alone
In short: as §2

E. coli 94474 [9] = format: cell-based, Escherichia coli; conditions: for MICUTBLP: UTBLP alone
In short: as §2

A. baumannii AB027 [10] = test: microbe, parasite or virus in culture; format: cell-based, Acinetobacter baumannii; conditions: AB027, 18 h
In short: as §1

A. baumannii AB92247 = test: microbe, parasite or virus in culture; format: cell-based, Acinetobacter baumannii; conditions: AB92247, 18 h
In short: as §1

E. faecalis ATCC 29212 = format: cell-based, Enterococcus faecalis
In short: as §2

[11] = UTBLP alone, plate with chloramphenicol
[12] = UTBLP in combination with chloramphenicol
[13] = chloramphenicol in combination with the UTBLP
[14] = UTBLP in combination with novobiocin
[15] = UTBLP in combination with rifampicin
[16] = novobiocin in combination with the UTBLP
[17] = rifampicin in combination with the UTBLP
[18] = UTBLP in combination with niclosamide
[19] = niclosamide in combination with the UTBLP

MIC (A. baumannii ATCC 17978 [1]): 128 µg/mL (≈ 125 µM) | MIC (E. coli 94393): 64 µg/mL (≈ 62.6 µM) | MIC (E. coli 94474 [2]): 128 µg/mL (≈ 125 µM) | MICUTBLP (MSSE 81388; [11]): 32 µg/mL | MICUTBLP [MICcombo] (MSSE 81388; [12]): 0.25 µg/mL | MICchloramphenicol [MICcombo] (MSSE 81388; [13]): 4 µg/mL | MICUTBLP (MRSE 61589; [11]): 32 µg/mL | MICUTBLP [MICcombo] (MRSE 61589; [12]): 0.25 µg/mL | MICchloramphenicol [MICcombo] (MRSE 61589; [13]): 8 µg/mL | MIC (E. cloacae 118564): > 128 µg/mL | MICUTBLP ([3]; plate with novobiocin): > 128 µg/mL | MICUTBLP ([3]; plate with rifampicin): > 128 µg/mL | MICUTBLP [MICcombo] [3, 14]: 16 µg/mL | MICUTBLP [MICcombo] [3, 15]: 16 µg/mL | MICantibiotic [MICcombo] [3, 16]: 512 µg/mL | MICantibiotic [MICcombo] [3, 17]: 8 µg/mL | MICUTBLP (P. aeruginosa PAO1 [4]; plate with chloramphenicol): > 128 µg/mL | MICUTBLP (P. aeruginosa PAO1 [4]; plate with niclosamide): > 128 µg/mL | MICUTBLP (P. aeruginosa PAO1 [4]; plate with novobiocin): > 128 µg/mL | MICUTBLP (P. aeruginosa PAO1 [4]; plate with rifampicin): > 128 µg/mL | MICUTBLP [MICcombo] (P. aeruginosa PAO1 [4]; [12]): 8 µg/mL | MICUTBLP [MICcombo] (P. aeruginosa PAO1 [4]; [18]): 0.25 µg/mL | MICUTBLP [MICcombo] (P. aeruginosa PAO1 [4]; [14]): 16 µg/mL | MICUTBLP [MICcombo] (P. aeruginosa PAO1 [4]; [15]): 16 µg/mL | MICantibiotic [MICcombo] (P. aeruginosa PAO1 [4]; [13]): 8 µg/mL | MICantibiotic [MICcombo] (P. aeruginosa PAO1 [4]; [19]): 1024 µg/mL | MICantibiotic [MICcombo] (P. aeruginosa PAO1 [4]; [16]): 128 µg/mL | MICantibiotic [MICcombo] (P. aeruginosa PAO1 [4]; [17]): 4 µg/mL | MICUTBLP ([5]; plate with novobiocin): > 128 µg/mL | MICUTBLP ([5]; plate with rifampicin): > 128 µg/mL | MICUTBLP [MICcombo] [5, 14]: 16 µg/mL | MICUTBLP [MICcombo] [5, 15]: 16 µg/mL | MICantibiotic [MICcombo] [5, 16]: 512 µg/mL | MICantibiotic [MICcombo] [5, 17]: 512 µg/mL | MIC (P. aeruginosa PAO1 [6]): >128 µg/mL | MIC (K. pneumoniae 113250): > 128 µg/mL | MICUTBLP (A. baumannii ATCC 17978 [7]; plate with chloramphenicol): 128 µg/mL | MICUTBLP (A. baumannii ATCC 17978 [7]; plate with niclosamide): 128 µg/mL | MICUTBLP (A. baumannii ATCC 17978 [7]; plate with novobiocin): 128 µg/mL | MICUTBLP (A. baumannii ATCC 17978 [7]; plate with rifampicin): 128 µg/mL | MICUTBLP [MICcombo] (A. baumannii ATCC 17978 [7]; [12]): 0.25 µg/mL | MICUTBLP [MICcombo] (A. baumannii ATCC 17978 [7]; [18]): 4 µg/mL | MICUTBLP [MICcombo] (A. baumannii ATCC 17978 [7]; [14]): 4 µg/mL | MICUTBLP [MICcombo] (A. baumannii ATCC 17978 [7]; [15]): 4 µg/mL | MICantibiotic [MICcombo] (A. baumannii ATCC 17978 [7]; [13]): 64 µg/mL | MICantibiotic [MICcombo] (A. baumannii ATCC 17978 [7]; [19]): 4 µg/mL | MICantibiotic [MICcombo] (A. baumannii ATCC 17978 [7]; [16]): 0.5 µg/mL | MICantibiotic [MICcombo] (A. baumannii ATCC 17978 [7]; [17]): 0.125 µg/mL | MICUTBLP (A. baumannii 92247; plate with novobiocin): 32 µg/mL | MICUTBLP (A. baumannii 92247; plate with rifampicin): 32 µg/mL | MICUTBLP [MICcombo] (A. baumannii 92247; [14]): 1 µg/mL | MICUTBLP [MICcombo] (A. baumannii 92247; [15]): 8 µg/mL | MICantibiotic [MICcombo] (A. baumannii 92247; [16]): 0.25 µg/mL | MICantibiotic [MICcombo] (A. baumannii 92247; [17]): 0.125 µg/mL | MICUTBLP (A. baumannii AB027 [8]; plate with novobiocin): 128 µg/mL | MICUTBLP (A. baumannii AB027 [8]; plate with rifampicin): 128 µg/mL | MICUTBLP [MICcombo] (A. baumannii AB027 [8]; [14]): 4 µg/mL | MICUTBLP [MICcombo] (A. baumannii AB027 [8]; [15]): 8 µg/mL | MICantibiotic [MICcombo] (A. baumannii AB027 [8]; [16]): 0.5 µg/mL | MICantibiotic [MICcombo] (A. baumannii AB027 [8]; [17]): 0.063 µg/mL | MICUTBLP (E. coli 94474 [9]; plate with novobiocin): 128 µg/mL | MICUTBLP (E. coli 94474 [9]; plate with rifampicin): 128 µg/mL | MICUTBLP [MICcombo] (E. coli 94474 [9]; [14]): 8 µg/mL | MICUTBLP [MICcombo] (E. coli 94474 [9]; [15]): 16 µg/mL | MICantibiotic [MICcombo] (E. coli 94474 [9]; [16]): 16 µg/mL | MICantibiotic [MICcombo] (E. coli 94474 [9]; [17]): 1 µg/mL | MIC (A. baumannii AB027 [10]): 128 µg/mL (≈ 125 µM) | MIC (A. baumannii AB92247): 32 µg/mL (≈ 31.3 µM) | MICUTBLP (E. faecalis ATCC 29212; [11]): 64 µg/mL | MICUTBLP [MICcombo] (E. faecalis ATCC 29212; [12]): 8 µg/mL | MICchloramphenicol [MICcombo] (E. faecalis ATCC 29212; [13]): 4 µg/mL
Structure (SMILES): CCCCCCCC(=O)NCCCC[C@H](NC(=O)CCCCCCC)C(=O)N[C@@H](CCCCN(C)C)C(=O)N[C@@H](CCCCN(C)C)C(=O)N[C@@H](CCCCN(C)C)C(=O)N[C@@H](CCCCN(C)C)C(N)=O [UTBLP 7] (Octanoyl-K(Octanoyl)[Lys(Me2)][Lys(Me2)][Lys(Me2)][Lys(Me2)]-NH2)
Interpretation (MSSE 81388; UTBLP + chloramphenicol): Additive (0.5 < x ≤ 4 is additive) | Interpretation (MRSE 61589; UTBLP + chloramphenicol): Additive (0.5 < x ≤ 4 is additive) | Interpretation ([3]; UTBLP + novobiocin): Additive (0.5 < x ≤ 4 is additive) | Interpretation ([3]; UTBLP + rifampicin): Additive (0.5 < x ≤ 4 is additive) | Interpretation (P. aeruginosa PAO1 [4]; UTBLP + chloramphenicol): Additive (0.5 < x ≤ 4 is additive) | Interpretation (P. aeruginosa PAO1 [4]; UTBLP + niclosamide): Additive (0.5 < x ≤ 4 is additive) | Interpretation (P. aeruginosa PAO1 [4]; UTBLP + novobiocin): Synergy (FICI ≤ 0.5 is synergistic) | Interpretation (P. aeruginosa PAO1 [4]; UTBLP + rifampicin): Additive (0.5 < x ≤ 4 is additive) | Interpretation ([5]; UTBLP + novobiocin): Additive (0.5 < x ≤ 4 is additive) | Interpretation ([5]; UTBLP + rifampicin): Additive (0.5 < x ≤ 4 is additive) | Interpretation (A. baumannii ATCC 17978 [7]; UTBLP + chloramphenicol): Additive (0.5 < x ≤ 4 is additive) | Interpretation (A. baumannii ATCC 17978 [7]; UTBLP + niclosamide): Synergy (FICI ≤ 0.5 is synergistic) | Interpretation (A. baumannii ATCC 17978 [7]; UTBLP + novobiocin): Synergy (FICI ≤ 0.5 is synergistic) | Interpretation (A. baumannii ATCC 17978 [7]; UTBLP + rifampicin): Synergy (FICI ≤ 0.5 is synergistic) | Interpretation (A. baumannii 92247; UTBLP + novobiocin): Synergy (FICI ≤ 0.5 is synergistic) | Interpretation (A. baumannii 92247; UTBLP + rifampicin): Synergy (FICI ≤ 0.5 is synergistic) | Interpretation (A. baumannii AB027 [8]; UTBLP + novobiocin): Synergy (FICI ≤ 0.5 is synergistic) | Interpretation (A. baumannii AB027 [8]; UTBLP + rifampicin): Synergy (FICI ≤ 0.5 is synergistic) | Interpretation (E. coli 94474 [9]; UTBLP + novobiocin): Synergy (FICI ≤ 0.5 is synergistic) | Interpretation (E. coli 94474 [9]; UTBLP + rifampicin): Synergy (FICI ≤ 0.5 is synergistic) | Interpretation (E. faecalis ATCC 29212; UTBLP + chloramphenicol): Additive (0.5 < x ≤ 4 is additive)
